Test results as given in ChEMBL document CHEMBL3988442, “University of Dundee, Small-Polar-MMV Screening Library” (2021).

How the values were obtained:
[1] = molecular target: T1, Coenzyme A biosynthesis bifunctional protein CoaBC (Mycobacterium tuberculosis (strain ATCC 25618 / H37Rv), UniProt P9WNZ1); assay: Biomol Green assay for MtCoaBC inhibitor, OD650 read; format: functional
T1 sequence (P9WNZ1 whole entry): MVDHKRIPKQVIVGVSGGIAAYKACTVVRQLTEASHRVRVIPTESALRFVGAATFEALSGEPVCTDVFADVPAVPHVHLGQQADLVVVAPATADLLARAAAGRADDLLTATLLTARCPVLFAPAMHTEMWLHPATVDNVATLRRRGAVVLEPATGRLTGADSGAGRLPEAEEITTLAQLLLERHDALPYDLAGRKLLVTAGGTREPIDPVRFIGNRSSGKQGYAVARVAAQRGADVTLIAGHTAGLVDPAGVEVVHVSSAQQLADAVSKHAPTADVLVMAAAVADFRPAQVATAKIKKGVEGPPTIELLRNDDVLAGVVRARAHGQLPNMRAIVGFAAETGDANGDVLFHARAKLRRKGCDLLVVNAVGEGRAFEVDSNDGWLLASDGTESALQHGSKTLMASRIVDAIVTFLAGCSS

Leishmania donovani = assay: Leishmania intramacrophage assay; format: functional, organism-based; conditions: for IC50: Leishmania donovani
[2] = In vitro enzyme assay to detect hydrolysis of chlorophenol red-beta-D-[…] directly proportional to the number of Toxoplasma stably expressing beta-galactosidase; format: functional, organism-based, Toxoplasma gondii; conditions: for IC50: Toxoplasma gondii
ClpP1P2 = ClpP1P2 (Mycobacterium tuberculosis (strain ATCC 25618 / H37Rv), UniProt P9WPC3+P9WPC5); assay: in vitro assay to detect presence of AMC directly proportional to the activity of ClpP1P2. GHDDI collaboration.; format: functional
Chain of ClpP1P2 (P9WPC5 whole entry): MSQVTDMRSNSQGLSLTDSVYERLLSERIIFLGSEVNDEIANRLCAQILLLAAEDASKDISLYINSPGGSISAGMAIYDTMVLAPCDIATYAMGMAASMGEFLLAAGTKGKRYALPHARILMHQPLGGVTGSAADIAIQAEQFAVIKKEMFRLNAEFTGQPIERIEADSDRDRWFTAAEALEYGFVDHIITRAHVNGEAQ
Chain of ClpP1P2 (P9WPC3 whole entry): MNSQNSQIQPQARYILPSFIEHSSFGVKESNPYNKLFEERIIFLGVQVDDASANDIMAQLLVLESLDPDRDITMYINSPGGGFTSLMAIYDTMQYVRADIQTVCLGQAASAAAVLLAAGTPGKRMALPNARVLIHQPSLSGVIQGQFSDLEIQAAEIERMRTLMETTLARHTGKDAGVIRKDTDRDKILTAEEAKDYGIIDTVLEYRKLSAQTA

Histidine--tRNA ligase = molecular target: T2, Histidine--tRNA ligase (Leishmania infantum, UniProt A4I591); assay: Leishmania infantum Histidine tRNA synthetase (LdHisRS); format: functional
T2 sequence (A4I591 whole entry): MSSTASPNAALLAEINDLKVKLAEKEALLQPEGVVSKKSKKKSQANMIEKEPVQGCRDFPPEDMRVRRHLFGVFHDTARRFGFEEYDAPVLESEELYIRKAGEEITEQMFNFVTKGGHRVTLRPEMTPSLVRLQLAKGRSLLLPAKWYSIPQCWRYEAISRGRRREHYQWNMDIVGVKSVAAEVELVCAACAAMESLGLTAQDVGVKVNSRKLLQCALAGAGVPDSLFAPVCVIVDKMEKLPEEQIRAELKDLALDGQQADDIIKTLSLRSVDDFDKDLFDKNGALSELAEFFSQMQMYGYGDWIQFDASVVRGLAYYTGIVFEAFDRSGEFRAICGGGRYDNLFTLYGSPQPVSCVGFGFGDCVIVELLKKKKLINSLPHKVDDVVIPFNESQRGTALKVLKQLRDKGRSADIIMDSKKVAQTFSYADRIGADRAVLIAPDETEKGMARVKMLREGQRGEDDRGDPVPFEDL

[3] = microbe, parasite or virus in culture; conditions: Mycobacterium tuberculosis, 96 h, read-out: pIC50 (converted)
[4] = microbe, parasite or virus in culture; conditions: Mycobacterium tuberculosis, 72 h, read-out: pIC50 (converted)
Tryptophan--tRNA ligase = Tryptophan--tRNA ligase (Mycobacterium tuberculosis (strain ATCC 25618 / H37Rv), UniProt P9WFT3); assay: Biochemical assay for Mt-TrpRS; format: functional
Chain of Tryptophan--tRNA ligase (P9WFT3 whole entry): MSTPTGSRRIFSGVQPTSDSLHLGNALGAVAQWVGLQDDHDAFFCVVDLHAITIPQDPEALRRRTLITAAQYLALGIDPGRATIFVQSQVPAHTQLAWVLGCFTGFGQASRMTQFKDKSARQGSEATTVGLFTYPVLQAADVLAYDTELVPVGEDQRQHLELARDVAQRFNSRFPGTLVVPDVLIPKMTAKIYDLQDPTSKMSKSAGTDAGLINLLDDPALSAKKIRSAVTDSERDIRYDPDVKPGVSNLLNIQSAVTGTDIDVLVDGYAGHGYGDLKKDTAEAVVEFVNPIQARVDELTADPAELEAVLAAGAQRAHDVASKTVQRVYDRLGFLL

Plasmodium falciparum = assay: Calibr Malaria Delayed Death Assay SOP; format: functional, organism-based

## NS(=O)(=O)c1cccnc1Nc1c(Cl)cccc1Cl
[1]
  IC50: > 30.2 µM

## CN1CCOC[C@H]1c1nc(-c2ccc(F)cc2F)c[nH]1
[1]
  IC50: > 30.2 µM

## Cc1cccc(CN2C[C@@H](F)[C@@H](OCc3nc4ccccc4[nH]3)C2)n1
[1]
  IC50: > 30.2 µM

## CC(C)CN1C[C@@H]2OCC(=O)N(c3ccccc3)[C@@H]2C1
[1]
  IC50: > 30.2 µM

## COc1ccc(CN[C@@H]2CO[C@H](CNC(=O)N3CCOCC3)[C@H]2O)cc1
[1]
  IC50: > 30.2 µM

## CCS(=O)(=O)c1ccc2oc([C@H]3CCN(Cc4ccccn4)C3)nc2c1
[1]
  IC50: > 30.2 µM

## O=C(NC[C@H]1OC[C@@H](NCc2ccc(F)cc2)[C@@H]1O)N1CCOCC1
[1]
  IC50: > 30.2 µM

## c1cc(-c2nnc([C@H]3CCNC3)o2)ccn1
[1]
  IC50: > 30.2 µM

## CS(=O)(=O)c1ccc(-c2c[nH]c([C@@H]3COCCN3)n2)cc1
[1]
  IC50: > 30.2 µM

## COC(=O)c1cccc2nc([C@H]3CCN(Cc4ccccc4)C3)oc12
[1]
  IC50: > 30.2 µM

## CCN(CC)CCNC(=O)c1ccc(-n2ccc3ccccc32)s1
Leishmania donovani
  IC50: 11.2 µM
[2]
  IC50: 7.53 µM

## CN(C)S(=O)(=O)c1ccc(-c2nc(C#N)c(NC3CCCCC3)o2)o1
Leishmania donovani
  IC50: > 50.1 µM
ClpP1P2
  IC50: > 100 µM

## CNC(=O)[C@@]12CCC3(CCN(S(=O)(=O)C4CC4)CC3)[C@@H]1CN(C(C)=O)C2
[1]
  IC50: > 30.2 µM

## CC1c2ncc(Cn3cncn3)n2CCN1C(=O)c1ccsc1 (stereo unspecified)
[1]
  IC50: > 30.2 µM

## CCOCC1CN(C(=O)C2=CCCC2)Cc2cnn(C)c21 (stereo unspecified)
[1]
  IC50: > 30.2 µM

## Cn1cccc1CN1CCc2ncnc(-c3cccnc3)c2CC1
[1]
  IC50: > 30.2 µM

## CN(C)CCO[C@@H]1CC[C@H]2[C@H]1OCCN2C(=O)c1ccncc1
[1]
  IC50: > 30.2 µM

## CC(C)CNc1nc2c(cc1C(=O)NCC1CC1)CCNCC2
Leishmania donovani
  pIC50: 4.725
  IC50: 17.7 µM
ClpP1P2
  IC50: > 100 µM

## Cc1ncnc2c1CCN(C(=O)c1ccoc1)CC2
[1]
  IC50: > 30.2 µM

## COCCNC(=O)c1nc2c(s1)CCCN2c1ccc(C)nn1
[1]
  IC50: > 30.2 µM

## CCOc1c(Cl)cc(Cl)cc1CNCCCn1ccnc1
Leishmania donovani
  IC50: 16 µM
Histidine--tRNA ligase
  IC50: > 100 µM

## Cc1cccc(-c2cc(C(=O)O)sn2)c1
[1]
  IC50: > 50.1 µM

## Cc1c(C(=O)N2CCN(c3ccccn3)CC2)n(C)c2ccc(Cl)cc12
[1]
  IC50: > 30.2 µM

## COc1ccccc1C1CC(=O)Nc2c1c(=O)[nH]n2C1CCCC1 (stereo unspecified)
[1]
  IC50: > 30.2 µM

## COc1ccc(-c2nnsc2C(=O)N2CCC(C(N)=O)CC2)cc1
[1]
  IC50: > 30.2 µM

## Cc1cs/c(=N\C(=O)Cn2nc(N3CCOCC3)ccc2=O)[nH]1
[1]
  IC50: > 30.2 µM

## Cc1ccc(-n2c(O)cc(C)c(C#N)c2=O)c(C)c1
[1]
  IC50: > 30.2 µM

## O=C(NCCCN1CCCCC1)c1ccc(-n2ccc3ccccc32)s1
Leishmania donovani
  pIC50: 5.277
  IC50: 7.13 µM
[2]
  IC50: 6.04 µM
[3]
  IC50: > 50.1 µM
[4]
  IC50: 28.1 µM

## COc1ccc(C2=Nn3c(CCN)nnc3-c3ccccc3C2)cc1
Leishmania donovani
  pIC50: 4.676
  IC50: 17.9 µM
Histidine--tRNA ligase
  IC50: > 100 µM

## N[C@@H]1CCC[C@@H](Oc2ccc(F)cc2Oc2ccccc2)[C@@H]1O
Leishmania donovani
  pIC50: 4.886
  IC50: 11.2 µM
Tryptophan--tRNA ligase
  IC50: > 195 µM
Plasmodium falciparum
  pIC50: 6.155
Plasmodium falciparum; Plasmodium falciparum
  IC50: 0.602 µM

## N[C@@H]1CCC[C@@H](Oc2ccc(F)cc2Oc2cccc(F)c2)[C@@H]1O
Leishmania donovani
  IC50: > 50.1 µM
Tryptophan--tRNA ligase
  IC50: > 195 µM

## c1ccc(C2=NOC3(CCN(Cc4c[nH]c5ccccc45)CC3)C2)cc1
Leishmania donovani
  pIC50: 4.869
  IC50: 18.3 µM
[2]
  pIC50: 5.08
  IC50: 6.84 µM
